{"source": "patent US7241439B2", "about": "“Biopesticide compositions” (Faculte Universitaire des Sciences Agronomiques de Gembloux, priority 2001, dated 2007)", "key": {"[1]": {"test_system": "B. cinerea", "experiment": "Protection of wounded apples against postharvest rot (lesion diameter)", "type": "in vivo", "experimental": "(§1) Apples (Malus domestics Borkh cv. Golden) were harvested from commercial orchards maintained with standard cultural practices in Belgium and placed in regular long term storage. Commercial class I fruits were used. They were bought from wholesale dealers and stored in a cold room at 4±1° C. for maximum 15 days before use.\n(§2) B. cinerea (grey mould) and Penicillium expansum (blue mould) strains were initially isolated from strawberries and apples respectively in Gembloux.\n(§3) Conidia from the two pathogenic strains were put in suspension in a glycerol solution (25%) and stored at −70° C. Another storage method consisted of growing the pathogen on Potato Dextrose Agar (PDA) in tubes, covering it then by paraffin oil and keeping the tubes at 25° C. Starting from this stored material, the two fungal strains were transferred to oat medium at 25° C. Conidial suspensions were prepared in an aqueous sterile solution of Tween 20 (0.05%), and were adjusted to the required concentration (10^6 spores/ml) using a Bärker cell.\n(§4) Before use, the micro-organisms were subcultured three times successively at 24 hours intervals on PDA (Potato Dextrose Agar). At the third generation, yeast cells were removed from the culture medium and suspended in isotonic water (NaCl 0.85%). Suspension concentrations were adjusted to the required values after the establishment of a regression line in relation with the micro-organisms suspension absorbance (at 595 nm) and the number of colony forming units (cfu) of the same suspension spread onto PDA.\n(§5) Fruits were disinfected by dipping for 2 minutes in sodium hypochlorite (10% of the commercial product). They were rinsed in sterile water and dried out under laminar flux before being wounded by removing 6 mm diameter and 3 mm deep blocks of tissue from two sites 4-5 cm apart along the equatorial line of the fruits.\n(§6) The wounds were treated by application of 50 μl of compositions of the state of the art or compositions of the invention.\n(§7) After a 24 h at 20° C. incubation period in plastic boxes, the wounds have been inoculated with 50 μl of the respective conidial suspensions of the pathogens. The fruits were incubated during one to three weeks at 25° C.\nThe diameters of the lesions developing around the wounds were measured after 7, 10, 14 and up to 20 days after treatment. Four fruits (8 wounds) were used per treatment.\n(§8) The percentage of protection provided by the different treatments is calculated from the diameter of lesion caused by the fruit rot agent after the incubation time using the following formula:\n(§9) [formula] where Y is the percentage of protection; DT is the mean diameter of lesions for the untreated control and Dx is the mean diameter of lesions for the treated fruits.\n(§10) Vegetal material, pathogens, antagonistic micro-organisms and treatment method were as in example 1. The wounds were treated by application of 50 pi of compositions of the state of the art or compositions of the invention. The effect of the compositions against postharvest apple rots caused by B. cinerea has been evaluated under controlled conditions."}, "[2]": {"test_system": "P. digitatum", "experiment": "Protection of wounded oranges against green mould", "type": "in vivo, Penicillium digitatum strain CBS31948", "conditions": "Table 7, GA 0.01% w/v", "experimental": "Oranges (Citrus sinensis (L.) Ohl. cv. Valencia) were bought from wholesale dealers and stored in a cold room at 4±1° C. for maximum 15 days before use.\nPenicillium digitatum strain CBS31948 (green mould of oranges) was obtained from the CentraalBureau Schimmelcultures, Netherlands collection and initially isolated from Citrus fruits. Conidia from the pathogenic strain were put in suspension in a glycerol solution (25%) and stored at −70° C. Starting from this stored material, the fungal strain was transferred to oat medium at 25° C. Conidial suspensions were prepared in an aqueous sterile solution of Tween 20 (0.05%). Before use, suspensions have been adjusted to the required concentration (10^5 spores/ml) using a Barker cell.\nThe antagonistic yeast strain P. anomala “strain K” was obtained as in example 1. C. oleophila strain I-182 commercialised under the name Aspire™ was obtained from Ecogen Inc. Both microorganisms were subcultured as in example 1.\nFruits were disinfected and wounded as in example 1. […] The percentage of protection is calculated as in example 1.\nVegetal material, pathogens, antagonistic agents and treatment method were as in example 3. […] The effect of the compositions against postharvest rots caused by P. digitatum has been evaluated under controlled conditions."}, "[3]": {"test_system": "P. expansum", "experiment": "Protection of wounded apples against postharvest rot (lesion diameter)", "type": "in vivo, Penicillium expansum", "experimental": "as §1, §2, §3, §4, §5, §6, §7\n[…] Four fruits (8 wounds) were used per treatment.\nas §8, §9, §10"}, "[4]": {"conditions": "Table 12, M (mannans) 0.02% w/v"}}, "note": "Where a name gives a salt, the structure may show the parent alone.", "data": [{"compound": "O.O=C[C@H](O)[C@@H](O)[C@@H](O)[C@H](O)C(=O)O", "note": "[GA, galacturonic acid (monohydrate)]", "values": [{"measurement": "% protection against B. cinerea after 7 days", "setting": "[1]; Table 1, GA 0.01% w/v", "result": 49, "unit": "%"}, {"measurement": "% protection against B. cinerea after 10 days", "setting": "[1]; Table 1, GA 0.01% w/v", "result": 42, "unit": "%"}, {"measurement": "% protection against B. cinerea after 14 days", "setting": "[1]; Table 1, GA 0.01% w/v", "result": 22, "unit": "%"}, {"measurement": "% protection against B. cinerea after 20 days", "setting": "[1]; Table 1, GA 0.01% w/v", "result": 2, "unit": "%"}, {"measurement": "% protection against B. cinerea after 7 days", "setting": "[1]; Table 2, GA 0.001% w/v", "result": 87, "unit": "%"}, {"measurement": "% protection against B. cinerea after 10 days", "setting": "[1]; Table 2, GA 0.001% w/v", "result": 47, "unit": "%"}, {"measurement": "% protection against B. cinerea after 14 days", "setting": "[1]; Table 2, GA 0.001% w/v", "result": 33, "unit": "%"}, {"measurement": "% protection against B. cinerea after 20 days", "setting": "[1]; Table 2, GA 0.001% w/v", "result": 0, "unit": "%"}, {"measurement": "% protection against B. cinerea after 7 days", "setting": "[1]; Table 3, GA 0.01% w/v", "result": 12, "unit": "%"}, {"measurement": "% protection against B. cinerea after 7 days", "setting": "[1]; Table 13, GA 0.001% w/v", "result": 87, "unit": "%"}, {"measurement": "% protection against B. cinerea after 10 days", "setting": "[1]; Table 13, GA 0.001% w/v", "result": 47, "unit": "%"}, {"measurement": "% protection against B. cinerea after 14 days", "setting": "[1]; Table 13, GA 0.001% w/v", "result": 33, "unit": "%"}, {"measurement": "% protection against B. cinerea after 20 days", "setting": "[1]; Table 13, GA 0.001% w/v", "result": 0, "unit": "%"}, {"measurement": "% protection against P. digitatum after 7 days", "setting": "[2]", "result": 58, "unit": "%"}, {"measurement": "% protection against P. digitatum after 10 days", "setting": "[2]", "result": 36, "unit": "%"}, {"measurement": "% protection against P. expansum After 7 days", "setting": "[3]; Table 3, GA 0.01% w/v", "result": 18, "unit": "%"}, {"measurement": "% protection against P. expansum after 6 days", "setting": "[3]; Table 4, GA 0.001% w/v", "result": 15, "unit": "%"}, {"measurement": "% protection against P. expansum after 8 days", "setting": "[3]; Table 4, GA 0.001% w/v", "result": 9, "unit": "%"}, {"measurement": "% protection against P. expansum after 10 days", "setting": "[3]; Table 4, GA 0.001% w/v", "result": 7, "unit": "%"}]}, {"compound": "O=C[C@H](O)[C@@H](O)[C@H](O)[C@H](O)C(=O)O", "note": "[GU, glucuronic acid (sodium salt)]", "values": [{"measurement": "% protection against B. cinerea after 7 days", "setting": "[1]; Table 1, GU 0.001% w/v", "result": 75, "unit": "%"}, {"measurement": "% protection against B. cinerea after 10 days", "setting": "[1]; Table 1, GU 0.001% w/v", "result": 46, "unit": "%"}, {"measurement": "% protection against B. cinerea after 14 days", "setting": "[1]; Table 1, GU 0.001% w/v", "result": 46, "unit": "%"}, {"measurement": "% protection against B. cinerea after 20 days", "setting": "[1]; Table 1, GU 0.001% w/v", "result": 21, "unit": "%"}, {"measurement": "% protection against B. cinerea after 7 days", "setting": "[1]; Table 2, GU 0.001% w/v", "result": 75, "unit": "%"}, {"measurement": "% protection against B. cinerea after 10 days", "setting": "[1]; Table 2, GU 0.001% w/v", "result": 46, "unit": "%"}, {"measurement": "% protection against B. cinerea after 14 days", "setting": "[1]; Table 2, GU 0.001% w/v", "result": 46, "unit": "%"}, {"measurement": "% protection against B. cinerea after 20 days", "setting": "[1]; Table 2, GU 0.001% w/v", "result": 21, "unit": "%"}]}, {"compound": "mannans", "values": [{"measurement": "% protection against B. cinerea after 7 days", "setting": "[1]; [4]", "result": 100, "unit": "%"}, {"measurement": "% protection against B. cinerea after 10 days", "setting": "[1]; [4]", "result": 78, "unit": "%"}, {"measurement": "% protection against B. cinerea after 14 days", "setting": "[1]; [4]", "result": 55, "unit": "%"}, {"measurement": "% protection against B. cinerea after 20 days", "setting": "[1]; [4]", "result": 16, "unit": "%"}, {"measurement": "% protection against B. cinerea after 7 days", "setting": "[1]; Table 12, M (mannans) 0.2% w/v", "result": 100, "unit": "%"}, {"measurement": "% protection against B. cinerea after 10 days", "setting": "[1]; Table 12, M (mannans) 0.2% w/v", "result": 93, "unit": "%"}, {"measurement": "% protection against B. cinerea after 14 days", "setting": "[1]; Table 12, M (mannans) 0.2% w/v", "result": 68, "unit": "%"}, {"measurement": "% protection against B. cinerea after 20 days", "setting": "[1]; Table 12, M (mannans) 0.2% w/v", "result": 26, "unit": "%"}, {"measurement": "% protection against B. cinerea after 7 days", "setting": "[1]; Table 13, M 0.02% w/v", "result": 100, "unit": "%"}, {"measurement": "% protection against B. cinerea after 10 days", "setting": "[1]; Table 13, M 0.02% w/v", "result": 78, "unit": "%"}, {"measurement": "% protection against B. cinerea after 14 days", "setting": "[1]; Table 13, M 0.02% w/v", "result": 55, "unit": "%"}, {"measurement": "% protection against B. cinerea after 20 days", "setting": "[1]; Table 13, M 0.02% w/v", "result": 16, "unit": "%"}, {"measurement": "% protection against B. cinerea after 7 days", "setting": "[1]; Table 13, M 0.2% w/v", "result": 100, "unit": "%"}, {"measurement": "% protection against B. cinerea after 10 days", "setting": "[1]; Table 13, M 0.2% w/v", "result": 93, "unit": "%"}, {"measurement": "% protection against B. cinerea after 14 days", "setting": "[1]; Table 13, M 0.2% w/v", "result": 68, "unit": "%"}, {"measurement": "% protection against B. cinerea after 20 days", "setting": "[1]; Table 13, M 0.2% w/v", "result": 28, "unit": "%"}]}, {"compound": "polygalacturonic acid [PGA, reference compound]", "values": [{"measurement": "% protection against P. expansum after 6 days", "setting": "[3]; Table 4, PGA 0.001% w/v", "result": 19, "unit": "%"}, {"measurement": "% protection against P. expansum after 8 days", "setting": "[3]; Table 4, PGA 0.001% w/v", "result": 12, "unit": "%"}, {"measurement": "% protection against P. expansum after 10 days", "setting": "[3]; Table 4, PGA 0.001% w/v", "result": 10, "unit": "%"}]}]}
